Where “and” joins values, the source holds several entries; their conditions need not be identical. Equal entries are not always repeated.
Key:
Calu6 = experiment: Growth rate over 10 day time-course (Cell Titer Glo); format: cell-based, human; details: Calu6, 1 μM DZNep, 10 day time-course
Experimental: (§1) FIG. 2A depicts a Western Blot for EZH2 and H3K27me3 performed on whole cell extracts 4 days after indicated treatments, β-actin shown as a loading control. FIG. 2B depicts a graph of the growth rates of matched shGFP and shGFP cells treated with 1 μM DZNep and assayed by Cell Titer Glo at days 3, 5, 7, and 10 post plating at equal densities. Average luminescence ±s.e.m. for 3 replicate wells is shown based on when each shGFP cell line reached logarithmic growth, * indicates p<0.03. FIG. 2C depicts a graph of the response to Etoposide. Cell lines were plated at equal densities and treated a range of etoposide doses with or without 1 μM DZNep. On the 4th day, cell viability was measured using Cell Titer Glo and the percent survival at each dose of etoposide was calculated. Dose response curves were generated for the no DZNep and DZNep treated cells using the GraphPad prism software and IC50s were extrapolated. The fold change±s.e.m. of etoposide IC50 in response to DZNep is plotted, n=4 biological replicates, * indicates p<0.05. Cell lines with mutations in Brg1, EGFR and B-Raf are indicated.

HCC95 = experiment: as above; format: cell-based, human; details: HCC95, 1 μM DZNep, 10 day time-course
Experimental: as §1

HCC15 [1] = experiment: as above; format: cell-based, human; details: HCC15, 1 μM DZNep, 10 day time-course
Experimental: as §1

H157 = experiment: as above; format: cell-based, human; details: H157, 1 μM DZNep, 10 day time-course
Experimental: as §1

H441 = experiment: as above; format: cell-based, human; details: H441, 1 μM DZNep, 10 day time-course
Experimental: as §1

HCC15 [2] = experiment: Etoposide dose response curves with or without DZNep, stably transduced lines; format: cell-based, human; details: HCC15 control cells
Experimental: (§2) Cell lines were dissociated, counted and plated at 5000 cells per well in flat bottom opaque tissue culture treated 96 well plates (CytoOne). Edge wells were filled with PBS. The following day, 2× drug diluted in media was added to each well such that the well then contained 100 ul media with 1× drug concentration. After 4 days, Cell Titer Glo™ (Promega) was added and luminescence was read on a BioTec plate reader to determine relative cell number in each well. Data were averaged for triplicate or quadruplicate technical replicates, normalized to the untreated wells and input into GraphPad Prism software to extrapolate IC50.
as §2, with “concentration at the following doses: etoposide; 0, 0.1, 1, 3, 5, 7, 10, 50, 100, 500 μM, cisplatin; 0, 0.1, 1, 5, 10, 30, 70, 100, 500 μM, or doxorubicin; 0, 0.01, 0.1, 0.5, 1, 3, 5, 7, 10, 50 μM.” for “concentration.”, “CELLTITER-GLO™” for “Cell Titer Glo™”, “replicates and” for “replicates,”, “wells. […]” for “wells and input into GraphPad Prism software to extrapolate IC50.”

H460 = experiment: as above; format: cell-based, human; details: H460 control cells
Experimental: as §2
as §2, with “concentration at the following doses: etoposide; 0, 0.1, 1, 3, 5, 7, 10, 50, 100, 500 μM, cisplatin; 0, 0.1, 1, 5, 10, 30, 70, 100, 500 μM, or doxorubicin; 0, 0.01, 0.1, 0.5, 1, 3, 5, 7, 10, 50 μM.” for “concentration.”, “CELLTITER-GLO™” for “Cell Titer Glo™”, “replicates and” for “replicates,”, “wells. […]” for “wells and input into GraphPad Prism software to extrapolate IC50.”

human NSCLC lines = experiment: Cytotox assays: chemotherapy dose response curves with or without EZH2 inhibitor, 4 days; format: cell-based
Experimental: as §2
Cell lines were dissociated, counted and plated at 5000 cells per well in flat bottom opaque tissue culture treated 96 well plates (CytoOne). Edge wells were filled with PBS. The following day, 2× drug diluted in media was added to each well such that the well then contained 100 ul media with 1× drug concentration at the following doses: etoposide; 0, 0.1, 1, 3, 5, 7, 10, 50, 100, 500 μM, cisplatin; 0, 0.1, 1, 5, 10, 30, 70, 100, 500 μM, or doxorubicin; 0, 0.01, 0.1, 0.5, 1, 3, 5, 7, 10, 50 μM. […] Data were averaged for triplicate or quadruplicate technical replicates and normalized to the untreated wells. Results from three or four independent biological replicate experiments were input into […] PRISM™ software to extrapolate IC50 and s.e.m. of IC50 for a given cell line.

EZH2 and H3K27me3 = experiment: Western Blot for EZH2 and H3K27me3 on whole cell extracts; format: cell-based, human; details: 1 μM DZNep, 4 days
Experimental: For Western blotting, 25 μg of protein extract per sample was denatured with heat and reducing agents, separated on a 4-12% acrylimide gel and transferred to nitrocellulose. Antibodies used for Western blotting were: EZH2 (Cell Signalling), β-actin (AbCAM) and H3K27me3 (Upstate).
Whole cell extracts were made in RIPA buffer (0.5% Deoxycholate, 1% IGEPAL-CA630, 0.1% sodium dodecyl sulfate, 150 mM NaCL, 50 mM Tris-8.1), lysates were cleared by centrifugation, and protein concentrations were quantified with the Pierce BCA Protein Assay Kit (Thermo). For Western blotting, 25 μg of protein extract per sample was denatured with heat and reducing agents, separated on a 4-12% acrylimide gel (BioRad) and transferred to nitrocellulose (GE Healthcare). Antibodies used for Western blotting were: EZH2 (clone D2C9; Cell Signaling; 1:200), Histone H3 (polyclonal; AbCAM ab1791; 1:2000) and H3K27me3 (polyclonal; Millipore 07-449; 1:1000) all incubated overnight at 4° C. Secondary antibody, anti-rabbit-HRP (Santa Cruz sc-2313; 1:5,000), was incubated for 1 hour at room temperature. After washing, chemi-luminescence was visualized with Western Lightning Plus-ECL (PerkinElmer) and exposure onto KODAK BioMax XAR™ film.

[3] = system: BRG1 mutant and BRG1 wild-type cell lines; experiment: Anaphase bridge analysis; format: cell-based, human
Experimental: To quantify anaphase bridges, cells were grown on 4-well cultures slides (Lab Tek II). Adherent cells were fixed with 4% paraformaldehyde for 20 min, washed and stained with Vectashield™ with 4′,6-diamidino-2-phenylindole (DAPI; Vector Labs). Images were taken of each anaphase structure, and the number of anaphases with bridges over the total number of anaphases (between 11 and 34 total anaphases per well of a 4-well chamber slide) was recorded for each of three or more independent biological replicate experiments.

For `Nc1nccc2c1ncn2[C@@H]1C=C(CO)[C@@H](O)[C@H]1O` [DZNep, 3-Deazaneplanocin A], the decrease in proliferation (Calu6) was 2.1 fold, the change in proliferation (HCC95) was “increased proliferation” and the decrease in proliferation (HCC15 [1]) was 3.2 fold. The decrease in proliferation (H157) was 2.1 fold, the decrease in proliferation (H441) was 2.1 fold and the “decrease in etoposide IC50 in response to DZNep” value (HCC15 [2]) was 2 fold. The “increase in etoposide IC50 in response to DZNep” value (H460) was 2 fold, the “cell lines more sensitive to etoposide in the presence of DZNep” value (human NSCLC lines; 1 μM DZNep, 4 days, panel of 29 (Example 1) or 26 (Example 2) lines) was 16 of the 29 and 14 of the 26 and the “sensitivity to etoposide in the presence of DZNep, protected lines” value (human NSCLC lines; H23, H460 and H441, 1 μM DZNep, 4 days) was “less sensitive”. For the same molecule, the “sensitivity to etoposide in the presence of DZNep, sensitized lines” value (human NSCLC lines; H157, HCC15, PC9, H157, A549, PC9, 1 μM DZNep, 4 days) was “more sensitive”, the “pattern of sensitized and protected cells with cisplatin combined with DZNep” value (human NSCLC lines; cis-platinum combined with DZNep) was “not observed” and the “EZH2 protein abundance and H3K27me3 catalytic mark” value (EZH2 and H3K27me3) was “effectively reduced”. For the same molecule, the “anaphase bridging when challenged with DZNep” value ([3]; BRG1 mutant cell lines) was “increased anaphase bridging”, the “anaphase bridging when challenged with DZNep” value ([3]; BRG1 wild-type lines) was “significant decrease” and the “anaphase bridging (TopoII dysfunction) in response to DZNep” value ([3]; HCC15 control line) was “increase in TopoII dysfunction”.
